Laboratory results as given in EP0913399A1, “Silver -2-mercapto sodium benzoate pharmaceutical compound and process for obtaining the same” (Korban Medical S.a.s. di Longhetti Gianna & C., priority 1997, dated 1999).
Counter-ions that a name gives are not always drawn.

Key:
tested organism = experiment: MIC comparison of equivalent ionic doses of Ag^+ from thiometal and from nitrate; antibacterial action of the anion; assay type: cell-based
solubility = assay type: physicochemical
[1] = effects to the skin (photosensitization, irritating, caustic)

Structure (SMILES)	antibacterical action (tested organism)	Solubility (solubility; DMSO)	Solubility (solubility; absolute ethanol)	Solubility (solubility; acetone)	Solubility (solubility; ether)	Solubility (solubility; water (cold))	caustic effects to the skin [1]	irritating effects to the skin [1]	photosensitization [1]	activity in MIC in favour of the thiometal (tested organism; comparison of equivalent ionic doses of Ag^+ from thiometal and from nitrate, variable depending on the tested organism)
O=C(O)c1ccccc1S [mercapto sodium benzoate anion, sodium salt of the 2-mercaptobenzoic acid, reference compound]	does not develop an antibacterical action									
O=C(O)c1ccccc1[S][Ag] [silver-2-mercapto sodium benzoate]		moderately soluble	insoluble	insoluble	insoluble	soluble	does not cause	does not cause	does not cause	-1.6 to -50 mcg/ml
